{"source": "patent US20120232162A1", "about": "“USE OF LUTEIN CONTAINING COMPOSITIONS TO IMPROVE CERTAIN ASPECTS OF MEMORY” (priority 2009, published 2012)", "key": {"mice [1]": {"tested_on": "mice", "test": "IntelliCage side discrimination paradigm (attention, associative learning and memory)", "assay_type": "in vivo", "conditions": "Lutein 9 mg/kg BW in feed, vs vehicle", "source_text": "(§1) The cognitive performance of mice treated with lutein and/or zeaxanthin was compared with that of vehicle-treated, age-matched controls in the IntelliCage®, a system which enables automated monitoring of spontaneous and learning behavior of mice in a homecage-like environment (NewBehavior AG, Zurich, Switzerland, www.newbehavior.com; Galsworthy et al. 2005, Behav Brain Res 157: 211-217; Onishchenko et al. 2007, Toxicol Sci 97: 428-437, Mechan et al., 2009, J. Neurosci. Methods, 180:43-51). Individual mice are recognized by sensors within the IntelliCage corners reading a transponder (reference identification tag) which is implanted into the scruff of the mouse's neck.\nEach IntelliCage® is essentially a large cage (37.5×55×20.5 cm), into which is placed a metal frame, comprising four recording (operant) chambers. The recording chambers fit into the corners of the cage, each covering a 15×15×21 cm right-angled triangular area of floor space. […]\nThis module was designed to test attention and associative memory. […] During this module the place errors (i.e. percentage of visits to incorrect corners) and side errors (i.e. percentage of nosepokes at the incorrect side of the correct corner) were recorded."}, "mice [2]": {"tested_on": "mice", "test": "IntelliCage associative memory paradigm (negative reinforcement, stress)", "assay_type": "in vivo", "source_text": "as §1\n(§2) Each IntelliCage® is essentially a large cage (37.5×55×20.5 cm), into which is placed a metal frame, comprising four recording (operant) chambers. The recording chambers fit into the corners of the cage, each covering a 15×15×21 cm right-angled triangular area of floor space. In-cage antennae enable automatic monitoring of each individual mouse's corner visits; photo-beams within each corner enable automated recording of individual nosepokes and licks of the water bottle spouts. Four triangular mouse shelters are placed in the center of the cage, above which is situated a food hopper, enabling ad libitum access to food.\nEach recording chamber comprises: (1) a plastic ring (30 mm inner diameter) which serves as an entrance into the chamber and houses the circular antenna which registers corner visits; (2) a grid floor, which the mice sit on once they have entered the chamber; (3) two circular openings (13 mm diameter) which enable access to water bottle spouts; each opening is crossed by photo-beams which register nose-pokes; (4) two motorized doors, which allow (door open) or prohibit (door closed) access to the water bottle spouts; (5) two water bottles; (6) tubing, through which air-puffs can be delivered as aversive stimulation; (7) different colored light diodes, which can be used for conditioning experiments (Mechan et al., 2009 J Neurosci Methods 180:43-51). […]"}, "mice [3]": {"tested_on": "mice", "test": "IntelliCage place learning paradigm (spatial learning and memory)", "assay_type": "in vivo", "conditions": "Lutein 9 mg/kg BW in feed, vs placebo-fed littermates", "source_text": "as §1\nas §2, with “food. […]” for “food.”"}, "[4]": {"tested_on": "primary culture of neurons", "test": "glutamate neurotoxicity paradigm in primary neuron culture (neurofilament network / neurite length)", "assay_type": "cell-based", "conditions": "lutein pre-treatment from day 5, 3 concentrations, n=6; 250 μM glutamate for 6 hours on day 12; glutamate control set as 100%; p<0.05 and <0.01", "source_text": "Glutamate is one of the principal excitatory amino acid in the central nervous system, and as such plays a crucial role in normal physiology. Perturbations in normal regulatory mechanisms of glutamate functions may lead to excessive, neurotoxic activation of glutamate receptors in the brain, which may be detrimental to learning and memory performance in the normal and aging brain. Using a primary culture of neurons, these conditions can be reproduced by glutamate intoxication. Impact on cultured neurons was indicated by morphological changes in the neurofilament cytoskeleton network of the neurons.\nNeuroprotective effects of single compounds and combinations of compounds were evaluated by analyzing network density using labelling with an anti-neurofilament antibody (heavy chain 200 kD) specific to mature neuron neurites.\nRiluzole (a pharmacological neuroprotective agent) and MK801 were used as inhibitory compounds counteracting neurotoxic effects of glutamate resulting in outgrowth of neurites. Inhibitory MK801 (complete blockage of NMDA-type glutamate receptors) was powerful and led to 100% recovery after intoxication.\nNeuroprotective functions of lutein were tested using the schedule shown below:\nOn day 5, the culture medium was replaced by control culture medium or medium containing lutein (3 concentrations) within physiological range, n=6 per concentration). […]"}, "[5]": {"conditions": "lutein alone; chronic treatment (4 months); WO 2006/116755; cited from earlier work"}, "[6]": {"conditions": "second set of experiments, younger animals, intermediate lutein dose (of 8, 16 and 30 mg/kg/d), vs control group"}}, "note": "“Also recorded” adds a separate entry of the source.", "data": [{"smiles": "CC1=C[C@H](O)CC(C)(C)[C@H]1/C=C/C(C)=C/C=C/C(C)=C/C=C/C=C(C)/C=C/C=C(C)/C=C/C1=C(C)C[C@@H](O)CC1(C)C", "note": "[lutein]", "values": [{"measurement": "side error rate (percentage of nosepokes at the incorrect side of the correct corner)", "setting": "mice [1]; active phase", "result": "significantly lower"}, {"measurement": "place error rate (percentage of visits to incorrect corners)", "setting": "mice [1]; active phase (first 12 h)", "result": "higher level of attention and an improved memory performance; also recorded: significantly lower"}, {"measurement": "learning and memorizing the correct place to access water under stressful conditions (air puff punishment)", "setting": "mice [2]; Lutein 9 mg/kg BW in feed, vs vehicle-treated littermates", "result": "significantly better"}, {"measurement": "performance in the associative memory task, place errors", "setting": "mice [2]; [6]", "result": "significant improvement"}, {"measurement": "performance in the associative memory task, side errors", "setting": "mice [2]; [6]", "result": "significant improvement"}, {"measurement": "using spatial cues to find and memorize the location of water", "setting": "mice [3]", "result": "significant improvement; also recorded: significantly better"}, {"measurement": "protection of neurons from excitotoxic glutamate neuro-toxicity (neurite length)", "setting": "[4]", "result": "significantly protected"}, {"measurement": "Verbal Fluency test", "setting": "[5]", "result": "significant improvement"}, {"measurement": "other cognitive- or mood assessment-tests", "setting": "[5]", "result": "did not result in improvements"}]}]}
